Measured values: ChEMBL document CHEMBL5038572, “Thermodynamic Dissection of Potency and Selectivity of Cytosolic Hsp90 Inhibitors” (J Med Chem, 2021)
Calls of active or inactive are those of the source. No cut-off for these calls is given here.

Experiments:
Endoplasmin = Endoplasmin (Homo sapiens, UniProt P14625); test: Binding affinity to GRP94 (unknown origin) by fluorescence polarization competitive binding assay
[1] = target: T1, Heat shock protein HSP 90-alpha (Homo sapiens, UniProt P07900); test: Inhibition of FITC-GDA binding to human HSP90-alpha incubated for 2 hrs followed by FITC-GDA addition and measured after 5 hrs by fluorescence polarization competitive binding assay
[2] = target: Heat shock protein HSP 90-beta (Homo sapiens, UniProt P08238); test: Binding affinity to human HSP90-beta by fluorescence polarization competitive binding assay
[3] = target: T2, Heat shock protein 75 kDa, mitochondrial (Homo sapiens, UniProt Q12931); test: Binding affinity to TRAP1 (unknown origin) by fluorescence polarization competitive binding assay
T2 sequence (Q12931 whole entry): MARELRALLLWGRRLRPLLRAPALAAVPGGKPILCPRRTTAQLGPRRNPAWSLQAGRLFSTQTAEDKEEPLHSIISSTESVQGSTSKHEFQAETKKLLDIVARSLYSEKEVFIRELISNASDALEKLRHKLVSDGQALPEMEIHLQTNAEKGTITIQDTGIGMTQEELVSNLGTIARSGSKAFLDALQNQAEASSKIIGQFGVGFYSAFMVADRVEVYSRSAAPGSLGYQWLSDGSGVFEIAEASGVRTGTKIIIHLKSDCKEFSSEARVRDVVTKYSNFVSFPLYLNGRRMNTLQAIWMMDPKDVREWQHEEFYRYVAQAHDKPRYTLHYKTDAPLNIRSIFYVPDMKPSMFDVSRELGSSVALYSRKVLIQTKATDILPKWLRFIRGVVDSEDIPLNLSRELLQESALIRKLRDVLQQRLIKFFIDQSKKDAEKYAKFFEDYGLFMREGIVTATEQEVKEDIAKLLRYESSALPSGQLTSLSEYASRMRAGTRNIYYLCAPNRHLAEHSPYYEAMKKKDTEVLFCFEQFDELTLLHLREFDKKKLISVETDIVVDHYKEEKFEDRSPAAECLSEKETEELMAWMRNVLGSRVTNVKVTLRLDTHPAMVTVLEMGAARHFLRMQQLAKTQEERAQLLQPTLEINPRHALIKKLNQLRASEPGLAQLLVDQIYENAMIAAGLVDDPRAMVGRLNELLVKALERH

[4] = target: T1, Heat shock protein HSP 90-alpha; test: Binding affinity to human HSP90-alpha N-terminal domain assessed as dissociation constant at 100 uM at 25 degC by isothermal titration calorimetry
[5] = target: T1, Heat shock protein HSP 90-alpha; test: Binding affinity to human HSP90-alpha assessed as change in heat capacity at 20 to 30 degC by isothermal titration calorimetry
[6] = target: T1, Heat shock protein HSP 90-alpha; test: Binding affinity to human HSP90-alpha N-terminal domain assessed as change in enthalpy at 100 uM by isothermal titration calorimetry
[7] = target: T1, Heat shock protein HSP 90-alpha; test: Binding affinity to human HSP90-alpha N-terminal domain assessed as gibbs free energy change at 100 uM by isothermal titration calorimetry
[8] = target: T1, Heat shock protein HSP 90-alpha; test: Binding affinity to human HSP90-alpha N-terminal domain assessed as change in enthalpy by measuring dissociation constant at 100 uM at 25 degC by isothermal titration calorimetry
[9] = target: T1, Heat shock protein HSP 90-alpha; test: Binding affinity to human HSP90-alpha N-terminal domain assessed as change in entropy at 100 uM by isothermal titration calorimetry
[10] = target: T1, Heat shock protein HSP 90-alpha; test: Binding affinity to human HSP90-alpha at protein to compound molar ratio of 1:1

Heat shock protein HSP 90-beta, sequence (P08238 whole entry): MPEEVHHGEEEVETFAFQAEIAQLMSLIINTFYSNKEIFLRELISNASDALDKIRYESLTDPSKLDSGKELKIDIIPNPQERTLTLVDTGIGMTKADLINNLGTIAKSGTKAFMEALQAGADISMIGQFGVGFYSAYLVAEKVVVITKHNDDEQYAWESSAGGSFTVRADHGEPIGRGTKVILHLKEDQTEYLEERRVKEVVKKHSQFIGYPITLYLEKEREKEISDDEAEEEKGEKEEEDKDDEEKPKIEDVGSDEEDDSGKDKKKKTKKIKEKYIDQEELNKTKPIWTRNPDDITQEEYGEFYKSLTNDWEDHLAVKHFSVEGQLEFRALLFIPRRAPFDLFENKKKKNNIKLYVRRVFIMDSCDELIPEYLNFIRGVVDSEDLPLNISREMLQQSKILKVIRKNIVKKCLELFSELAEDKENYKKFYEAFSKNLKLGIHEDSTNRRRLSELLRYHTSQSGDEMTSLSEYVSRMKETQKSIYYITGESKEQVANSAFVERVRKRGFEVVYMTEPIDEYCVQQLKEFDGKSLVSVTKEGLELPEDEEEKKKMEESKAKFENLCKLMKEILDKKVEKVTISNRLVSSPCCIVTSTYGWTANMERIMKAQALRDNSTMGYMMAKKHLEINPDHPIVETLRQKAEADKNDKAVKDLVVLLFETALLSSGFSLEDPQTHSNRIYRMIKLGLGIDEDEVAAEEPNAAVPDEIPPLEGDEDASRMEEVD
Endoplasmin, sequence (P14625 whole entry): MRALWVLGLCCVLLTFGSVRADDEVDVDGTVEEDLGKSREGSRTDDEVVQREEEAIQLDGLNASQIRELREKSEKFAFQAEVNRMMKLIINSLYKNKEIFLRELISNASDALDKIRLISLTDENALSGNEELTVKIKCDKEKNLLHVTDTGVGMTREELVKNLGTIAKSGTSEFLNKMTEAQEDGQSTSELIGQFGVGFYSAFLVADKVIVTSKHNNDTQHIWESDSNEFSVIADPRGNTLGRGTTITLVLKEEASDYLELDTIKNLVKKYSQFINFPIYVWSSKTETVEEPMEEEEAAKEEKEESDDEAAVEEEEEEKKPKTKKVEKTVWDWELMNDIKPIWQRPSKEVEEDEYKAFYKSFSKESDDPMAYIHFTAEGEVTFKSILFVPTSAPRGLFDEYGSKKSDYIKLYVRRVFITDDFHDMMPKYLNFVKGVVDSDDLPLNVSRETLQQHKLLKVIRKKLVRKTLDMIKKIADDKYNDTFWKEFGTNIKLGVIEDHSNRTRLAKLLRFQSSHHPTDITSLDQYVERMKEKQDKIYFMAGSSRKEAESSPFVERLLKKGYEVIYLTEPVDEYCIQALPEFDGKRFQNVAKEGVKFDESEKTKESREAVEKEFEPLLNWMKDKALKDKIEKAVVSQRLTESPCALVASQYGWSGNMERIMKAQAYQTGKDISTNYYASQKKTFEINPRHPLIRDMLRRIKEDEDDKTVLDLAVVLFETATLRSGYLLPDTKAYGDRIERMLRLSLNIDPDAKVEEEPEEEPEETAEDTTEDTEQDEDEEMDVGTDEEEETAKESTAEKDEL

Row | DeltaCp [5] | IC50 (Endoplasmin) | IC50 [1] | IC50 [2] | IC50 [3] | Structure (SMILES) | further results
1 |  |  |  |  |  | NC(=O)c1ccc(-c2nccc3c(-n4cnc(-c5ccccc5)c4)ccnc23)cc1NC1CCC(O)CC1 (stereo not given) | Ki (Endoplasmin): > 300 µM; Ki [1]: 13 µM; Ki [2]: 17 µM; Ki [3]: > 300 µM
2 | -0.29 kcal/mol.K |  |  |  |  | CCc1cc(C(N)=O)ccc1-n1nc(C(C)C)c2c(-n3cnc(-c4cnn(C)c4)c3)ccnc21 [TAS-116] | Kd [4]: 0.17 µM
3 | 0.56 kcal/mol.K | > 300 µM | 293 µM | 89 µM | > 300 µM | CC(C)c1n[nH]c2nccc(-n3cnc(-c4cccnc4)c3)c12 | deltaH [6]: -5.7 kcal/mol; deltaG [7]: -7.6 kcal/mol; Kd [8]: 2.7 µM; -TdeltaS [9]: -1.9 kcal/mol; Activity [10]: Active
4 |  | > 300 µM | 300 µM | 218 µM | > 300 µM | CC(C)c1n[nH]c2nccc(-n3cnc(-c4cnn(C)c4)c3)c12 | 
